According to patent publication US20130078287A1 (Horizon Pharma USA, Inc., priority 2010, published 2013):

Tested on: subjects expected to require daily NSAID therapy
Test: REDUCE-2 study: endoscopically diagnosed UGI, gastric and duodenal ulcers
Type: in vivo, human
Procedure: Subjects were deemed a treatment failure and terminated early from the study in the event they developed an endoscopically diagnosed UGI ulcer. Subjects who terminated early for reasons other than development of an endoscopically diagnosed UGI ulcer were to undergo an endoscopic examination at a termination visit that was conducted as soon as possible after administration of their final dose of study drug. The predefined population for primary analyses of ulcers was all subjects with ≧1 follow-up study endoscopy.

[1] = REDUCE-2, 24 weeks, crude proportion
[2] = REDUCE-2, 24 weeks, crude proportion, listed as ibuprofen
[3] = REDUCE-2, 24 weeks, life table estimate
[4] = REDUCE-2, 24 weeks, life table estimate, listed as ibuprofen
[5] = REDUCE-2, early terminations imputed as having an ulcer

## CC(C)Cc1ccc(C(C)C(=O)O)cc1 (stereo not drawn) [Ibuprofen, 2-(p-isobutylphenyl)propionic acid]
[1]
  Proportion of subjects with Duodenal Ulcer: 9/190 (4.7%);
  Proportion of subjects with Gastric Ulcer: 34/190 (17.9%);
  Proportion of subjects with UGI Ulcer: 38/190 (20%);
  UGI Ulcer: Subjects with Low-dose Aspirin Use: 6/23 (26.1%);
  UGI Ulcer: Subjects with Prior Ulcer: 2/11 (18.2%);
[2]
  Proportion of subjects with Duodenal Ulcer: 4.7%
  Proportion of subjects with Gastric Ulcer: 17.9%
  Proportion of subjects with UGI Ulcer: 20.0%
[3]
  Proportion of subjects with Duodenal Ulcer: 6.6%
  Proportion of subjects with Gastric Ulcer: 19.7%
  Proportion of subjects with UGI Ulcer: 22.6%
  UGI Ulcer: Subjects with Prior Ulcer: 20.0%
[4]
  Proportion of subjects with Duodenal Ulcer: 6.6%
  Proportion of subjects with Gastric Ulcer: 19.7%
  Proportion of subjects with UGI Ulcer: 22.6%
REDUCE-2, early drop-outs imputed as treatment failures
  Crude ulcer rate, UGI ulcers: 25.3%
[5]
  Crude ulcer rate, duodenal ulcer: 10.1%
  Crude ulcer rate, gastric ulcer: 23.2%
